Results reported in PubChem BioAssay AID2060499 (Molecular Pharmacology Branch, DTP, NCI, 2025).

System: 777334-354-R2-J4-PDC tumor spheroids with HUVEC/MSC, viability
Assay: Anticancer human tumor 777334-354-R2-J4-PDC patient-derived pancreatic adenocarcinoma cell line growth inhibition [GQUAD]
Conditions: for IC50: curve of first compound; for viability, T/C: stronger effect = lower value
Summary of the method: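 Multi-cell-type spheroids of tumor cells with HUVEC and mesenchymal stem cells, treated with drug combinations. Concentrations descend in half-log steps from near clinical Cmax, or from 10 microM where Cmax is unknown; viability read-out.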

[1] = second compound 0.0316 µM, first compound 0.0316 µM
[2] = second compound 0.0316 µM, first compound 0.316 µM
[3] = second compound 0.1 µM, first compound 0.0316 µM
[4] = second compound 0.1 µM, first compound 0.316 µM
[5] = second compound 0.316 µM, first compound 0.0316 µM
[6] = second compound 0.316 µM, first compound 0.316 µM
[7] = second compound 1 µM, first compound 0.0316 µM
[8] = second compound 1 µM, first compound 0.316 µM
[9] = second compound 3.16 µM, first compound 0.0316 µM
[10] = second compound 3.16 µM, first compound 0.316 µM
[11] = second compound 10 µM, first compound 0.0316 µM
[12] = second compound 10 µM, first compound 0.316 µM
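Further: spheroids exposed to compounds for 7 days before readout.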

Cc1[nH]c2ccccc2c1CCNCc1ccc(/C=C/C(=O)NO)cc1 + Cc1cnc(CNC(=O)c2c(=O)c3ccc(N4CCCN(C)CC4)nc3n3c2sc2ccccc23)cn1
IC50 (second compound 0.0316 µM): 0.144 µM
IC50 (second compound 0.1 µM): 0.155 µM
IC50 (second compound 0.316 µM): 0.122 µM
IC50 (second compound 1 µM): 0.114 µM
IC50 (second compound 3.16 µM): 0.0893 µM
IC50 (second compound 10 µM): < 0.000999 µM
viability, T/C (second compound 0.0316 µM, first compound 0.000999 µM): 95.1%
viability, T/C (second compound 0.0316 µM, first compound 0.00316 µM): 89.1%
viability, T/C (second compound 0.0316 µM, first compound 0.00999 µM): 93.1%
viability, T/C [1]: 73.6%
viability, T/C (second compound 0.0316 µM, first compound 0.0999 µM): 57.9%
viability, T/C [2]: 35.5%
viability, T/C (second compound 0.1 µM, first compound 0.000999 µM): 83.1%
viability, T/C (second compound 0.1 µM, first compound 0.00316 µM): 69.4%
viability, T/C (second compound 0.1 µM, first compound 0.00999 µM): 68.1%
viability, T/C [3]: 73.2%
viability, T/C (second compound 0.1 µM, first compound 0.0999 µM): 58.9%
viability, T/C [4]: 35.3%
viability, T/C (second compound 0.316 µM, first compound 0.000999 µM): 73.7%
viability, T/C (second compound 0.316 µM, first compound 0.00316 µM): 79.5%
viability, T/C (second compound 0.316 µM, first compound 0.00999 µM): 58.2%
viability, T/C [5]: 69.3%
viability, T/C (second compound 0.316 µM, first compound 0.0999 µM): 53.7%
viability, T/C [6]: 32.9%
viability, T/C (second compound 1 µM, first compound 0.000999 µM): 70.8%
viability, T/C (second compound 1 µM, first compound 0.00316 µM): 66.2%
viability, T/C (second compound 1 µM, first compound 0.00999 µM): 68.2%
viability, T/C [7]: 58.1%
viability, T/C (second compound 1 µM, first compound 0.0999 µM): 56%
viability, T/C [8]: 26.4%
viability, T/C (second compound 3.16 µM, first compound 0.000999 µM): 58%
viability, T/C (second compound 3.16 µM, first compound 0.00316 µM): 58.6%
viability, T/C (second compound 3.16 µM, first compound 0.00999 µM): 59.4%
viability, T/C [9]: 53.8%
viability, T/C (second compound 3.16 µM, first compound 0.0999 µM): 50.3%
viability, T/C [10]: 18.6%
viability, T/C (second compound 10 µM, first compound 0.000999 µM): 53.2%
viability, T/C (second compound 10 µM, first compound 0.00316 µM): 46.2%
viability, T/C (second compound 10 µM, first compound 0.00999 µM): 51.7%
viability, T/C [11]: 46.1%
viability, T/C (second compound 10 µM, first compound 0.0999 µM): 42.6%
viability, T/C [12]: 1.07%

COc1ccc([C@@H](O)c2cc(-c3ncnc4cc(N5CCOCC5)ccc34)c(F)cc2Cl)nn1 + CN(C)c1ccc(Nc2c3ccc(NC(=O)CCN4CCCC4)cc3nc3cc(NC(=O)CCN4CCCC4)ccc23)cc1
IC50 (second compound 0.0316 µM): 3.58 µM
IC50 (second compound 0.1 µM): 3.71 µM
IC50 (second compound 0.316 µM): 2.97 µM
IC50 (second compound 1 µM): 2.71 µM
IC50 (second compound 3.16 µM): 1.86 µM
IC50 (second compound 10 µM): 1.12 µM
viability, T/C [1]: 88.8%
viability, T/C (second compound 0.0316 µM, first compound 0.1 µM): 88.9%
viability, T/C [2]: 84.3%
viability, T/C (second compound 0.0316 µM, first compound 1 µM): 72.4%
viability, T/C (second compound 0.0316 µM, first compound 3.16 µM): 53.6%
viability, T/C (second compound 0.0316 µM, first compound 10 µM): 23.9%
viability, T/C [3]: 96.6%
viability, T/C (second compound 0.1 µM, first compound 0.1 µM): 81.3%
viability, T/C [4]: 96.2%
viability, T/C (second compound 0.1 µM, first compound 1 µM): 68.8%
viability, T/C (second compound 0.1 µM, first compound 3.16 µM): 55.5%
viability, T/C (second compound 0.1 µM, first compound 10 µM): 26.9%
viability, T/C [5]: 96.8%
viability, T/C (second compound 0.316 µM, first compound 0.1 µM): 83.2%
viability, T/C [6]: 79.4%
viability, T/C (second compound 0.316 µM, first compound 1 µM): 68.7%
viability, T/C (second compound 0.316 µM, first compound 3.16 µM): 48.9%
viability, T/C (second compound 0.316 µM, first compound 10 µM): 24.5%
viability, T/C [7]: 86.2%
viability, T/C (second compound 1 µM, first compound 0.1 µM): 86.4%
viability, T/C [8]: 76.6%
viability, T/C (second compound 1 µM, first compound 1 µM): 73.1%
viability, T/C (second compound 1 µM, first compound 3.16 µM): 45.7%
viability, T/C (second compound 1 µM, first compound 10 µM): 23.1%
viability, T/C [9]: 72.5%
viability, T/C (second compound 3.16 µM, first compound 0.1 µM): 81.2%
viability, T/C [10]: 73.3%
viability, T/C (second compound 3.16 µM, first compound 1 µM): 57.8%
viability, T/C (second compound 3.16 µM, first compound 3.16 µM): 42.5%
viability, T/C (second compound 3.16 µM, first compound 10 µM): 20.6%
viability, T/C [11]: 81.3%
viability, T/C (second compound 10 µM, first compound 0.1 µM): 71.8%
viability, T/C [12]: 69.5%
viability, T/C (second compound 10 µM, first compound 1 µM): 51%
viability, T/C (second compound 10 µM, first compound 3.16 µM): 32.9%
viability, T/C (second compound 10 µM, first compound 10 µM): 17.4%
